Laboratory results taken from PMC7822874, “Chemoprotective antimalarials identified through quantitative high-throughput screening of Plasmodium blood and liver stage parasites” (Scientific Reports, 2021).
Read-outs that look alike come from different tables or passages of the source.

Experiments:
[1] = in vitro; details: human; for viability at 48 h, 1 µM / viability at 48 h, 3 µM: HepG2-A16-CD81EGFP cells, uninfected
[2] = test system: Plasmodium falciparum Dd2 asexual blood stage parasites; experiment: microbe, parasite or virus in culture; parameters: species or system Plasmodium falciparum Dd2 in human erythrocytes; single determination (one 11-point concentration-response curve); details: Plasmodium falciparum, DD2, Erythrocyte, 72 h
[3] = test system: P. berghei-ANKA-GFP-LucCON liver stage parasites in HepG2-A16-CD81EGFP cells; experiment: P. berghei liver stage Pb-Luc assay, Method 1 (UCSD, 1536-well); assay type: cell-based, Plasmodium berghei; details: Plasmodium berghei, 48 h; for Pb-Luc signal, 1 uM, repeat 1: reference of the scale not given here; for Pb-Luc signal, 1 uM, repeat 2: reference of the scale not given here; for Pb-Luc signal, 1 uM, repeat 3: reference of the scale not given here; for Pb-Luc signal, 3 uM, repeat 1: reference of the scale not given here; for Pb-Luc signal, 3 uM, repeat 2: reference of the scale not given here; for Pb-Luc signal, 3 uM, repeat 3: reference of the scale not given here
[4] = test system: HepG2-A16-CD81EGFP cells; details: for HepG2 viability signal, 1 uM, repeat 2: nominal 1 uM (10 mM stock), […] for 15 mM, 1.2 uM for 12 mM, 2 uM for 20 mM stock; for HepG2 viability signal, 1 uM, repeat 2 / HepG2 viability signal, 3 uM, repeat 2: average of 2 wells; for HepG2 viability signal, 3 uM, repeat 2: nominal 3 uM (10 mM stock), 4.5 uM for 15 mM, 3.6 uM for 12 mM, 6 uM for 20 mM stock
[5] = nominal 1 uM (10 mM stock), […] for 15 mM, 1.2 uM for 12 mM, 2 uM for 20 mM stock, average of 2 wells, 1536-well plate, repeat 1, read-out: Pb-Luc signal, 1 uM, repeat 1
[6] = nominal 1 uM (10 mM stock), […] for 15 mM, 1.2 uM for 12 mM, 2 uM for 20 mM stock, average of 2 wells, 1536-well plate, repeat 2, read-out: Pb-Luc signal, 1 uM, repeat 2
[7] = nominal 1 uM (10 mM stock), […] for 15 mM, 1.2 uM for 12 mM, 2 uM for 20 mM stock, average of 2 wells, 1536-well plate, repeat 3, read-out: Pb-Luc signal, 1 uM, repeat 3
[8] = nominal 3 uM (10 mM stock), 4.5 uM for 15 mM, 3.6 uM for 12 mM, 6 uM for 20 mM stock, average of 2 wells, 1536-well plate, repeat 1, read-out: Pb-Luc signal, 3 uM, repeat 1
[9] = nominal 3 uM (10 mM stock), 4.5 uM for 15 mM, 3.6 uM for 12 mM, 6 uM for 20 mM stock, average of 2 wells, 1536-well plate, repeat 2, read-out: Pb-Luc signal, 3 uM, repeat 2
[10] = nominal 3 uM (10 mM stock), 4.5 uM for 15 mM, 3.6 uM for 12 mM, 6 uM for 20 mM stock, average of 2 wells, 1536-well plate, repeat 3, read-out: Pb-Luc signal, 3 uM, repeat 3
[11] = read-out: Pb-Luc P. berghei liver stage signal, repeat 1
[12] = read-out: Pb-Luc P. berghei liver stage signal, repeat 2
[13] = read-out: Pb-Luc P. berghei liver stage signal, repeat 3

SMILES	viability at 48 h, 1 µM [1] [%]	viability at 48 h, 3 µM [1] [%]	AC50 ([2]; read-out: AC50) [nM]	activity at 1 µM [3, 5] [%]	activity at 1 µM [3, 6] [%]	activity at 1 µM [3, 7] [%]	activity at 3 µM [3, 8] [%]	activity at 3 µM [3, 9] [%]	activity at 3 µM [3, 10] [%]	HepG2 viability signal, 1 uM, repeat 2 [4] [%]	HepG2 viability signal, 3 uM, repeat 2 [4] [%]	other results
COc1ccccc1CN1COc2ccc3c(oc(=O)c4ccccc43)c2C1 [NCGC00116378-01]	106	108	2110	85.6	85.1	110	73.3	86.8	88.1	104.93	105.29	–
CCc1ccc(Oc2c(C(F)(F)F)oc3c(CN4CCN(CC)CC4)c(O)ccc3c2=O)cc1 [NCGC00101506-01]	92.4	95.7	376	82.1	87.1	67	64.2	90	40.1	92.46	94.20	–
Cc1ccc(C)c(Oc2c(C(F)(F)F)oc3c(CN4CCN(C)CC4)c(O)ccc3c2=O)c1 [NCGC00141020-01]	110	115	750	97.7	131	113	86	92.3	113	106.86	105.57	–
Cc1ccc(O)c([C@H](CCN(C(C)C)C(C)C)c2ccccc2)c1 [NCGC00159519-02]	–	–	–	–	–	–	–	–	–	–	–	viability [1]: 103%; AC50 [2]: 4220 nM; activity at 1 µM [3, 11]: 106%; activity at 3 µM [3, 11]: 74.9%; activity at 1 µM [3, 12]: 80%; activity at 3 µM [3, 12]: 85.4%; activity at 1 µM [3, 13]: 106%; activity at 3 µM [3, 13]: 89%; HepG2 viability, fourth HepG2 column ([4]; human): 99.21%; HepG2 viability, second HepG2 column ([4]; human): 104.09%; HepG2 viability, third HepG2 column ([4]; human): 100.98%
CCOC(=O)c1c(S(=O)(=O)N2CCCC(C(=O)N3CCN(c4cccc(C)c4C)CC3)C2)c(C)n(C)c1C (stereo not drawn) [NCGC00138143-01]	96.4	99.6	1060	90.2	90.3	120	83.2	98.3	108	101.67	102.57	–
CN1CCN(C(=O)c2ccc3c(c2)N(Cc2ccc(C(F)(F)F)cc2)C(=O)c2ccccc2S3)CC1 [NCGC00108242-01]	99.8	101	531	104	123	103	91	99.2	92.4	102.88	103.88	–
Cn1nnnc1SCCCNCc1cccc(OCc2ccccc2)c1 [NCGC00117957-01]	97.9	101	9440	78.6	108	127	58.9	94	87.5	101.95	103.35	–
CC(C)C(=O)N1Cc2ccccc2CC2(CCCN(CC3CCCCC3)C2)C1 (stereo not drawn) [NCGC00377456-01]	100	105	53.1	94.7	96.1	116	81.5	98	85.1	102.51	104.36	–
CCOC(=O)c1ccc(NC2=CC(c3ccc(O)c(OCC)c3)N(c3ccc(C(=O)OCC)cc3)C2=O)cc1 (stereo not drawn) [NCGC00102600-01]	98.6	101	3350	107	140	101	117	126	113	100.94	102.23	–
Cc1cnc(CC2CCN([S+](=O)([O-])c3ccccc3)CC2)n1Cc1ccccc1 [NCGC00469740-01]	94.7	96.4	5310	97.2	133	138	81.1	76.7	90.7	97.06	98.63	–
Fc1ccc(N2CCCN(C[C@H]3[C@@H]4CNC[C@@H]43)CC2)cc1 [NCGC00435915-01]	102	124	8410	97.7	120	120	53.5	38.2	21.5	103.90	120.28	–
CC(C)c1ccccc1Oc1c(C(F)(F)F)oc2c(CN3CCN(C)CC3)c(O)ccc2c1=O [NCGC00100597-01]	101	102	668	104	108	80.4	67.9	95.1	69.5	96.39	99.40	–
